Results as given in US4748177A, “Guanine derivatives” (Warner-Lambert Company, priority 1985, dated 1988).

Tested on: T-cells
Assay: standard test of selective cytotoxicity for T-cells in the presence of 2'-deoxyguanosine
Assay type: cell-based
Conditions: in the presence of 10 μM of 2'-deoxyguanosine
Method: […] activity was measured radiochemically by measuring the formation of [^14 -C]-hypoxanthine from [^14 -C]-inosine [Biomedicine, 33, 39 (1980)] using human erythrocyte as the enzyme source. The same compounds also were found by a standard test [Science, 214, 1137, (1981)] to be selectively cytotoxic for T-cells in the presence of 2'-deoxyguanosine at a similar concentration range. For example, 8-amino-9-[(4-methylphenyl)methyl]guanine is selectively cytotoxic to T-cells at a concentration of about 3.1 μM in the presence of 10 μM of 2'-deoxyguanosine. Similarly, 8-amino-9-[(4-methoxyphenyl)methyl]guanine is selectively cytotoxic to T-cells at concentration of about 1.1 μM in the presence of 10 μM of 2'-deoxyguanosine. On the other hand, these compounds were nontoxic to B-cells in the presence or absence of the same amount of 2'-deoxyguanosine. Since T-cells play a central role in immune response, use of the compounds of the invention is contemplated for the immunoregulation of rejection in transplantation and autoimmune disease such as rheumatoid arthritis, systemic lupus erythematosus, inflammatory bowel disease, cancer, juvenile diabetes, myasthenia gravis, multiple sclerosis, and viral diseases. […]

| Compound | concentration at which selectively cytotoxic to T-cells |
| --- | --- |
| COc1ccc(Cn2c(N)nc3c(=O)[nH]c(N)nc32)cc1 [8-amino-9-[(4-methoxyphenyl)methyl]guanine] | about 1.1 μM |
| Cc1ccc(Cn2c(N)nc3c(=O)[nH]c(N)nc32)cc1 [8-amino-9-[(4-methylphenyl)methyl]guanine] | about 3.1 μM |
